Measured values published in patent US9855268B2, “Triazolo[4,5-d]pyrimidine derivatives” (Merck Patent GmbH, priority 2013, dated 2018).

What was measured:
GSK3β(h) = GSK3β(h) (Homo sapiens, UniProt P49841); experiment: GSK3β radiometric kinase assay (33P-ATP, phospho GS2 peptide); type: biochemical; details: read-out: IC50 GSK3β (enzyme assay)
How it was run: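 Human GSK3β in 8 mM MOPS pH 7,0, 0,2 mM EDTA, 10 mM Mg-acetate with 20 μM phospho-GS2 peptide; the reaction was started with [γ-33P]MgATP at an unstated level. After 40 min at room temperature it was stopped with phosphoric acid, and the peptide was captured on P30 filtermat for scintillation counting.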

GCN2 [1] = molecular target: T1, GCN2 (Homo sapiens, UniProt Q9P2K8); experiment: Cellular assay of GCN2 activity (phospho-eIF2alpha immunocytochemistry after tryptophanol); type: cell-based; design: endogenous in cells; host or cells: U2OS; details: Human U2OS cells, 2 h compound, 600 μM tryptophanol 30 min
How it was run: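 Readout in human U2OS cells: compound pretreatment 2 h, then tryptophanol (600 μM final) for 30 min to trigger GCN2 signalling. Fixed, permeabilised cells quantified by immunocytochemistry for phosphorylation, normalised to DMSO controls as % effect; IC50 from concentration-response.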
Target sequence in this assay (Q9P2K8 whole entry): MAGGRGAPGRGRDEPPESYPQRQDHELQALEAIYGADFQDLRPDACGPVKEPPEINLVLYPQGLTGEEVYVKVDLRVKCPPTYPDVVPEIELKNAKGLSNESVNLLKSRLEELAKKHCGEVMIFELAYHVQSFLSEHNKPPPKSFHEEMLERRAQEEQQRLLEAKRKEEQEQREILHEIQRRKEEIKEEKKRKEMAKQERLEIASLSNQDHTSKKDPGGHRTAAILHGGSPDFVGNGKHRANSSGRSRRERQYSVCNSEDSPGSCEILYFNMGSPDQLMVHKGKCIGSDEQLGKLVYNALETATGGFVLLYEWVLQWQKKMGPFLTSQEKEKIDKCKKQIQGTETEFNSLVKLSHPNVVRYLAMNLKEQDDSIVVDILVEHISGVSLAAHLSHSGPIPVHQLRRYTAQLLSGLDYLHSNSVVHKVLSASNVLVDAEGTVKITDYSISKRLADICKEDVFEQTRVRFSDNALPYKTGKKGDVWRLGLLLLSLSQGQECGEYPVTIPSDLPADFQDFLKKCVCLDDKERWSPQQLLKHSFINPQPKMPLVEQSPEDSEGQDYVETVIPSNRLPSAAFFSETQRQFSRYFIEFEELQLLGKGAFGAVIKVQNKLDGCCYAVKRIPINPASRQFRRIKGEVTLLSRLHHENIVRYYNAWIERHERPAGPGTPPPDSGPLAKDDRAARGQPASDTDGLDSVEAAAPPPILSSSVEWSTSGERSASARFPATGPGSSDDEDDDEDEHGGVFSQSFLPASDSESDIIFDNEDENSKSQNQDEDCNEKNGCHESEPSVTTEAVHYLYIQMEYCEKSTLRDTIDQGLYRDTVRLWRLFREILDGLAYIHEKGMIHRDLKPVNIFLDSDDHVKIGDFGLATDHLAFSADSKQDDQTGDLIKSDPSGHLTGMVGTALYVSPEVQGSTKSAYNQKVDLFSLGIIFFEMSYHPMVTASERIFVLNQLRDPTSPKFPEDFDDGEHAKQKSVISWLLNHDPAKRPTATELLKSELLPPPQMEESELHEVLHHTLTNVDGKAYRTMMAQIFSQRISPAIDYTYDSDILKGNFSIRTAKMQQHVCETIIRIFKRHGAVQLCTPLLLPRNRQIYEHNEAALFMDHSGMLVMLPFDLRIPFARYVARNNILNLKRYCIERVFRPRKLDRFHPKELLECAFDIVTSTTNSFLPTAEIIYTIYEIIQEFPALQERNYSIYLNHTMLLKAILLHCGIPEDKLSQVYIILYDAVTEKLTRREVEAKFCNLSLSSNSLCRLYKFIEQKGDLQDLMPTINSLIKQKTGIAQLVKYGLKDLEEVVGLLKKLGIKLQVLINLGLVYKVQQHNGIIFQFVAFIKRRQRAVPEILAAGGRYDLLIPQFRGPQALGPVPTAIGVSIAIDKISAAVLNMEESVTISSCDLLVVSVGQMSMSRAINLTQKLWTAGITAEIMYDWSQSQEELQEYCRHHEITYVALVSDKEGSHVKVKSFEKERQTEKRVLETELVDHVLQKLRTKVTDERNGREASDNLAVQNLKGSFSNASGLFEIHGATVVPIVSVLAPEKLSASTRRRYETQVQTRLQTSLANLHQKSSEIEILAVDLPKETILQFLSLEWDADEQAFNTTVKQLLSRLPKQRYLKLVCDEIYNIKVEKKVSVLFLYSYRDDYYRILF

GCN2 [2] = molecular target: T1, GCN2; experiment: GCN2 enzyme assay (TR-FRET Lanthascreen, GFP-eIF2alpha phosphorylation); type: biochemical; details: 10 μM ATP, 80 nM GFP-eIF2a, 30 nM GCN2
How it was run: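 Kinase reaction with 10 μM ATP and 80 nM GFP-labelled eIF2alpha substrate at room temperature, stopped with EDTA. Phospho-eIF2alpha detected by TR-FRET between antibody and GFP-substrate, excitation at 340 nm.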
Target sequence in this assay (Q9P2K8 whole entry, species assumed): as the sequence (Q9P2K8 whole entry) above

GSK3α(h) = GSK3α(h) (Homo sapiens, UniProt P49840); experiment: GSK3α radiometric kinase assay (33P-ATP, phospho GS2 peptide); type: biochemical; details: read-out: IC50 GSK3α (enzyme assay)
Sequence of GSK3α(h) (P49840 whole entry): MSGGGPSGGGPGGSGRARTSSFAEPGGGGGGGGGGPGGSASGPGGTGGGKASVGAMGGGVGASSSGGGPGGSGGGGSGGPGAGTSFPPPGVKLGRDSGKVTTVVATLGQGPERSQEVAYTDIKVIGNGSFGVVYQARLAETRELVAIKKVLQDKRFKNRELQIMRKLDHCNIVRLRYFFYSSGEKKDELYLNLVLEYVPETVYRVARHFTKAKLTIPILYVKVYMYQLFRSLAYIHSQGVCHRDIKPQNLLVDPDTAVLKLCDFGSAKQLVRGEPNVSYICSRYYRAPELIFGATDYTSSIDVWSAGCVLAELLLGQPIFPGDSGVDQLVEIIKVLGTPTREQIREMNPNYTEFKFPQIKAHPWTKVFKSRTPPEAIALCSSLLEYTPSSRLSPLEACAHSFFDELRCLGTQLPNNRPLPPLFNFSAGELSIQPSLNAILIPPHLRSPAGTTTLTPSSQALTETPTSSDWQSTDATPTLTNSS
How it was run: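 Human GSK3α incubated with 20 μM phospho-GS2 peptide in 8 mM MOPS pH 7,0, 10 mM Mg-acetate and [γ-33P]ATP (concentration as required), started with MgATP. After 40 minutes at room temperature, stopped with phosphoric acid; 33P incorporation measured by filtermat spotting and scintillation counting.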

Sequence of GSK3β(h) (P49841 whole entry): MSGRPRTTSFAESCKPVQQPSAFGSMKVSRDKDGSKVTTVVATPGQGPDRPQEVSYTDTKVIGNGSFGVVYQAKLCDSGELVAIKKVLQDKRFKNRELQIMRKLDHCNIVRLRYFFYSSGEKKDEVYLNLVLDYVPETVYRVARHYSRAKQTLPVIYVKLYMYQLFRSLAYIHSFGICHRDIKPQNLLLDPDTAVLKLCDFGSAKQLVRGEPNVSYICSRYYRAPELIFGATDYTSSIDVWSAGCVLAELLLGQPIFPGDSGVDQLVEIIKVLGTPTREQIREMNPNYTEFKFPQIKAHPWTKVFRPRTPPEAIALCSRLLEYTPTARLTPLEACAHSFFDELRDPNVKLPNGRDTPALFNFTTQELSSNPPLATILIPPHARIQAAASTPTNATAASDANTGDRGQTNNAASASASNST

| IC50 (GSK3β(h)) [nM] | IC50 (GCN2 [1]) [nM] | IC50 (GCN2 [2]) [nM] | IC50 (GSK3α(h)) [nM] | SMILES |
| --- | --- | --- | --- | --- |
| < 1000 | 1000 to 5000 | < 1000 | < 1000 | Cn1cc(-c2ccc(-n3nnc4cnc(N[C@@H]5CC[C@H](N)C5)nc43)cc2)cn1 [A118, (1S,3R)-N3-{3-[4-(1-methyl-1H-pyrazol-4-yl)-phenyl]-3H-[1,2,3]triazolo[4,5-d]pyrimidin-5-yl}-cyclopentane-1,3-diamine] |
| < 1000 | 1000 to 5000 | < 1000 | < 1000 | Cc1ccc2cc(-n3nnc4cnc(N[C@@H]5CC[C@@H](C(=O)NCC6CCN(C)CC6)C5)nc43)ccc2n1 [A252, (1R,3R)-3-[3-(2-methyl-quinolin-6-yl)-3H-[1,2,3]triazolo[4,5-d]pyrimidin-5-ylamino]-cyclopentanecarboxylic acid (1-methyl-piperidin-4-ylmethyl)-amide] |
| < 1000 | 5000 to 10000 | < 1000 | < 1000 | CC(C)Oc1ccc(-n2nnc3cnc(N[C@@H]4CC[C@@H](O)C4)nc32)cc1 (relative stereo) [A210, (trans)-3-[3-(4-isopropoxy-phenyl)-3H-[1,2,3]triazolo[4,5-d]pyrimidin-5-ylamino]-cyclopentanol] |
| < 1000 | 1000 to 5000 | < 1000 | < 1000 | CCOCCn1cc(-c2ccc(-n3nnc4cnc(N[C@@H]5CC[C@@H](O)C5)nc43)cc2)cn1 [A227, (1R,3R)-3-(3-{4-[1-(2-ethoxy-ethyl)-1H-pyrazol-4-yl]-phenyl}-3H-[1,2,3]triazolo[4,5-d]pyrimidin-5-ylamino)-cyclopentanol] |
| < 1000 | 1000 to 5000 | < 1000 | < 1000 | Cc1nc2ccc(-n3nnc4cnc(N[C@@H]5CC[C@@H](C(N)=O)C5)nc43)cc2s1 [A147, (1R,3R)-3-[3-(2-methyl-benzothiazol-6-yl)-3H-[1,2,3]triazolo[4,5-d]pyrimidin-5-ylamino]-cyclopentanecarboxylic acid amide] |
| < 1000 | < 1000 | < 1000 | < 1000 | Cc1ccc2cc(-n3nnc4cnc(N[C@@H]5CC[C@@H](C(N)=O)C5)nc43)ccc2n1 [A187, (1R,3R)-3-[3-(2-methyl-quinolin-6-yl)-3H-[1,2,3]triazolo[4,5-d]-pyrimidin-5-ylamino]-cyclopentanecarboxylic acid amide] |
| < 1000 | 1000 to 5000 | < 1000 | < 1000 | CCOCCOc1ccc2cc(-n3nnc4cnc(N[C@@H]5CC[C@@H](C(N)=O)C5)nc43)ccc2n1 [A182, (1R,3R)-3-{3-[2-(2-ethoxy-ethoxy)-quinolin-6-yl]-3H-[1,2,3]triazolo[4,5-d]-pyrimidin-5-ylamino}-cyclopentanecarboxylic acid amide] |
| < 1000 | 1000 to 5000 | < 1000 | < 1000 | CC(C)(CCO)Oc1ccc(-n2nnc3cnc(N[C@@H]4CC[C@@H](C(N)=O)C4)nc32)cc1 [A278, (1R,3R)-3-{3-[4-(3-hydroxy-1,1-dimethyl-propoxy)-phenyl]-3H-[1,2,3]triazolo[4,5-d]pyrimidin-5-ylamino}-cyclopentanecarboxylic acid amide] |
| < 1000 | 1000 to 5000 | < 1000 | < 1000 | COCCn1cc(-c2ccc(-n3nnc4cnc(N[C@@H]5CC[C@@H](C(N)=O)C5)nc43)cc2C)cn1 [A230, (1R,3R)-3-(3-{4-[1-(2-methoxy-ethyl)-1H-pyrazol-4-yl]-3-methyl-phenyl}-3H-[1,2,3]triazolo[4,5-d]pyrimidin-5-ylamino)-cyclopentanecarboxylic acid amide] |
| < 1000 | 1000 to 5000 | < 1000 | < 1000 | CCOc1ccc(-n2nnc3cnc(N[C@@H]4CC[C@@H](C(=O)NCC5CCN(C)CC5)C4)nc32)cc1 [A249, (1R,3R)-3-[3-(4-ethoxy-phenyl)-3H-[1,2,3]triazolo[4,5-d]pyrimidin-5-ylamino]-cycloentanecarboxyic acid (1-methyl-piperidin-4-ylmethyl)-amide] |
| < 1000 | 1000 to 5000 | < 1000 | < 1000 | CCOCCn1cc(-c2ccc(-n3nnc4cnc(N[C@@H]5CC[C@@H](C(=O)NCCOC)C5)nc43)cc2)cn1 [A225, (1R,3R)-3-(3-{4-[1-(2-ethoxy-ethyl)-1H-pyrazol-4-yl]-phenyl}-3H-[1,2,3]triazolo[4,5-d]pyrimidin-5-ylamino)-cyclopentanecarboxylic acid (2-methoxy-ethyl)-amide] |
| < 1000 | 1000 to 5000 | < 1000 | < 1000 | COCCOc1ccc(-n2nnc3cnc(N[C@@H]4CC[C@@H](C#N)C4)nc32)cc1 [A274, (1R,3R)-3-{3-[4-(2-methoxy-ethoxy)-phenyl]-3H-[1,2,3]triazolo[4,5-d]pyrimidin-5-ylamino}-cyclopentanecarbonitrile] |
| < 1000 | 1000 to 5000 | < 1000 | < 1000 | OCCn1cc(-c2ccc(-n3nnc4cnc(N[C@@H]5CC[C@@H](O)C5)nc43)cc2)cn1 [A259, (1R,3R)-3-(3-{4-[1-(2-hydroxy-ethyl)-1H-pyrazol-4-yl]-phenyl}-3H-[1,2,3]triazolo[4,5-d]pyrimidin-5-ylamino)-cyclopentanol] |
| < 1000 | 1000 to 5000 | < 1000 | < 1000 | Cc1ncc2cc(-n3nnc4cnc(N[C@@H]5CC[C@@H](C(N)=O)C5)nc43)ccc2n1 [A184, (1R,3R)-3-[3-(2-methyl-quinazolin-6-yl)-3H-[1,2,3]triazolo[4,5-d]pyrimidin-5-ylamino]-cyclopentanecarboxylic acid amide] |
| < 1000 | 1000 to 5000 | < 1000 | < 1000 | COCCOc1ccc(-n2nnc3cnc(N[C@@H]4CC[C@@H](C(N)=O)C4)nc32)cc1 [A135, (1R,3R)-3-{3-[4-(2-methoxy-ethoxy)-phenyl]-3H-[1,2,3]triazolo[4,5-d]pyrimidin-5-ylamino}-cyclopentanecarboxylic acid amide] |
| < 1000 | < 1000 | < 1000 | < 1000 | COCCn1cc(-c2ccc(-n3nnc4cnc(N[C@@H]5CC[C@@H](C(N)=O)C5)nc43)cc2)cn1 [A218, (1R,3R)-3-(3-{4-[1-(2-methoxy-ethyl)-1H-pyrazol-4-yl]-phenyl}-3H-[1,2,3]triazolo[4,5-d]pyrimidin-5-ylamino)-cyclopentanecarboxylic acid amide] |
| < 1000 | 1000 to 5000 | < 1000 | < 1000 | CCOc1ccc(-n2nnc3cnc(N[C@@H]4CC[C@@H](C(=O)NNC(C)=O)C4)nc32)cc1 [A280, (1R,3R)-3-[3-(4-ethoxy-phenyl)-3H-[1,2,3]triazolo[4,5-d]pyrimidin-5-ylamino]-cyclopentanecarboxylic acid N′-acetyl-hydrazide] |
| < 1000 | 5000 to 10000 | < 1000 | < 1000 | NC(=O)[C@@H]1CC[C@@H](Nc2ncc3nnn(-c4ccc(-c5cnn(CCO)c5)c(F)c4)c3n2)C1 [A260, (1R,3R)-3-(3-{3-fluoro-4-[1-(2-hydroxy-ethyl)-1H-pyrazol-4-yl]-phenyl}-3H-[1,2,3]triazolo[4,5-d]pyrimidin-5-ylamino)-cyclopentanecarboxylic acid amide] |
| < 1000 | 1000 to 5000 | < 1000 | < 1000 | O[C@@H]1CC[C@@H](Nc2ncc3nnn(-c4ccc5ncccc5c4)c3n2)C1 [A204, (1R,3R)-3-(3-quinolin-6-yl-3H-[1,2,3]triazolo[4,5-d]pyrimidin-5-ylamino)-cyclopentanol] |
| < 1000 | 1000 to 5000 | < 1000 | < 1000 | COCCn1cc(-c2ccc(-n3nnc4cnc(N[C@@H]5CC[C@@H](C(=O)NCC6CCN(C)CC6)C5)nc43)cc2)cn1 [A235, (1R,3R)-3-(3-{4-[1-(2-methoxy-ethyl)-1H-pyrazol-4-yl]-phenyl}-3H-[1,2,3]triazolo[4,5-d]pyrimidin-5-ylamino)-cyclopentanecarboxylic acid (1-methyl-piperidin-4-ylmethyl)-amide] |
| < 1000 | 1000 to 5000 | < 1000 | < 1000 | COCCn1cc(-c2ccc(-n3nnc4cnc(N[C@@H]5CC[C@@H](O)C5)nc43)cc2)cn1 [A212, (1R,3R)-3-(3-{4-[1-(2-methoxy-ethyl)-1H-pyrazol-4-yl]-phenyl}-3H-[1,2,3]triazolo[4,5-d]pyrimidin-5-ylamino)-cyclopentanol] |
| < 1000 | 1000 to 5000 | < 1000 | < 1000 | Cc1ccc2cc(-n3nnc4cnc(N[C@H]5CC[C@H](C(N)=O)C5)nc43)ccc2n1 [A193, (1S,3S)-3-[3-(2-methyl-quinolin-6-yl)-3H-[1,2,3]triazolo[4,5-d]pyrimidin-5-ylamino]-cyclopentanecarboxylic acid amide] |
